PMC2844090 (Journal of medicinal chemistry, 2009)

Experiments:
[1] = biological target: T1, human kynurenine aminotransferase I (hKAT I) (Homo sapiens, UniProt Q16773); assay: co-crystal structure at […] Å; format: binding
T1 sequence (Q16773 1-422): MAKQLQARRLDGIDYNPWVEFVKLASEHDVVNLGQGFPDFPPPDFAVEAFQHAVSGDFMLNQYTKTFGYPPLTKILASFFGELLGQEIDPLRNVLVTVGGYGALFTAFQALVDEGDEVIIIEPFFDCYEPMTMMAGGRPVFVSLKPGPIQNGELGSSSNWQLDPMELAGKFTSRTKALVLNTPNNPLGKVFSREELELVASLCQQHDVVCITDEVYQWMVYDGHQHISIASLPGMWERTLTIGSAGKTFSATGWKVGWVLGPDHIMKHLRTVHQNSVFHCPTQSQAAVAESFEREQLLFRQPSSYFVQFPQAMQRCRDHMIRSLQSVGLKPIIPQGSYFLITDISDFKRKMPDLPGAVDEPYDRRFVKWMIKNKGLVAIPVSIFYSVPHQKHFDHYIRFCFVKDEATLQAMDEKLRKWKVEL

[2] = biological target: T1, human kynurenine aminotransferase I (hKAT I); assay: transamination assay, HPLC of KYNA; format: biochemical
[3] = biological target: T1, human kynurenine aminotransferase I (hKAT I); assay: transamination assay, HPLC of KYNA; format: biochemical; remark: listed apart in the source

Structure (SMILES) | transamination assay, HPLC of KYNA (0.08-10 mM); competing substrate [2] | further results
NC(CO)(CO)CO [Tris] | – | co-crystal structure at 1.50 Å (one of two subunits) [1]: Tris lies near the PLP cofactor and that the Tris amine does not form an external aldimine with PLP
O=C(O)C(=O)Cc1c[nH]c2ccccc12 [indole-3-pyruvic acid] | Figure 6B shows the inhibitions of tryptophan and indole-3-pyruvic acid | –
O=C(O)/C=C/c1c[nH]c2ccccc12 [trans-3-indoleacrylic acid] | – | transamination assay, HPLC of KYNA (0.08-10 mM) [3]: All six of the chemicals strongly inhibited hKAT I
N[C@@H](Cc1c[nH]c2ccccc12)C(=O)O [tryptophan] | Figure 6B shows the inhibitions of tryptophan and indole-3-pyruvic acid | –
